The molecules below were run against T1, human O-GlcNAcase (Homo sapiens, UniProt O60502) (assay: Determination of KI values for inhibition of O-GlcNAcase activity (fluorogenic 4-methylumbelliferyl GlcNAc substrate)). Conditions: purified human O-GlcNAcase 0.7 nM, 2 mM substrate, pH 7.0, room temperature; Cheng-Prusoff; read-out: Ki.
T1 sequence (O60502 1-916): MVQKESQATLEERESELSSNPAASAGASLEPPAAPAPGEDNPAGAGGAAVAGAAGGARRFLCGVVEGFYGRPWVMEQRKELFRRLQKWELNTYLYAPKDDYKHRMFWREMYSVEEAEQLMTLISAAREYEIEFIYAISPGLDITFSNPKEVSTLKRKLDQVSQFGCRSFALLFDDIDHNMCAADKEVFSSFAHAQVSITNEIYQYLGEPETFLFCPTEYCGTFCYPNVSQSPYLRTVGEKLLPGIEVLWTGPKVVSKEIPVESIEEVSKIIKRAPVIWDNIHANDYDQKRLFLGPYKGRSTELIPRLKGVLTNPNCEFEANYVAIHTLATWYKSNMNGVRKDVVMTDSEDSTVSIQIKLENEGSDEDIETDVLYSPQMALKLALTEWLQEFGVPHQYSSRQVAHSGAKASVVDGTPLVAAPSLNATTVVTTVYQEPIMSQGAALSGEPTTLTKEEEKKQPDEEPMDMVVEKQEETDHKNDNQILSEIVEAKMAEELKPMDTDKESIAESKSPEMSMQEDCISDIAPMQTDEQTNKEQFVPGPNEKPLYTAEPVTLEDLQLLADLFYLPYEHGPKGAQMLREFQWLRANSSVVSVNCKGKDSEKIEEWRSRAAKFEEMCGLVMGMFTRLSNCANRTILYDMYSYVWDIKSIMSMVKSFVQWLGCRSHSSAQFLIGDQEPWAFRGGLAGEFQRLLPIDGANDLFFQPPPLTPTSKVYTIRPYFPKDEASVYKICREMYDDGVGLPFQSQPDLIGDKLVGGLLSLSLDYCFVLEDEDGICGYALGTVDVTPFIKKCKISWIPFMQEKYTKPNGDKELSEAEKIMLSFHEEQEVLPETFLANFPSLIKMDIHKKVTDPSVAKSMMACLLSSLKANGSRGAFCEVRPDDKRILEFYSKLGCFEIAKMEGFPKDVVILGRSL
Type: biochemical
Protocol: Assay for Determination of […] for Inhibition of O-GlcNAcase Activity
Experimental procedure for kinetic analyses: Enzymatic reactions were carried out in a reaction containing 50 mM NaH2PO4, 100 mM NaCl and 0.1% BSA (pH 7.0) using 2 mM 4-Methylumbelliferyl N-acetyl-β-D-glucosaminide dihydrate (Sigma M2133) dissolved in ddH2O, as a substrate. The amount of purified human O-GlcNAcase enzyme used in the reaction was 0.7 nM. Test compound of varying concentrations was added to the enzyme prior to initiation of the reaction. The reaction was performed at room temperature in a 96-well plate and was initiated with the addition of substrate. […] The slope of product production was determined for each concentration of compound tested and plotted, using standard curve fitting algorithms for sigmoidal dose response curves. The values for a four parameter logistic curve fit of the data were determined.

Compound | Ki [nM]
COc1ccc(CC[C@@H]([C@H]2O[C@@H]3SC(N(C)C)=N[C@@H]3[C@@H](O)[C@@H]2O)C(F)(F)F)cc1 (single isomer, unassigned) [Example 2] | 1.6
COc1ccc(C/C=C(\[C@H]2O[C@@H]3SC(N(C)C)=N[C@@H]3[C@@H](O)[C@@H]2O)C(F)(F)F)cc1 (single isomer, unassigned) [Example 3] | 9.5
COc1ccc(C/C=C(/[C@H]2O[C@@H]3SC(N(C)C)=N[C@@H]3[C@@H](O)[C@@H]2O)C(F)(F)F)cc1 (single isomer, unassigned) [Example 4] | 16.2
CNC1=N[C@@H]2[C@@H](O)[C@H](O)[C@@H]([C@H](O)CCc3ccc(OC)cc3)O[C@@H]2S1 (single isomer, unassigned) [Example 6] | 139
CNC1=N[C@@H]2[C@@H](O)[C@H](O)[C@@H]([C@@H](O)CCc3ccc(OC)cc3)O[C@@H]2S1 (single isomer, unassigned) [Example 7] | 1.2
CNC1=N[C@@H]2[C@@H](O)[C@H](O)[C@@H]([C@](O)(CCc3ccc(OC)cc3)C(F)(F)F)O[C@@H]2S1 (single isomer, unassigned) [Example 8] | 0.95
CNC1=N[C@@H]2[C@@H](O)[C@H](O)[C@@H]([C@@](O)(CCc3ccc(OC)cc3)C(F)(F)F)O[C@@H]2S1 (single isomer, unassigned) [Example 9] | 24
CN(C)C1=N[C@@H]2[C@@H](O)[C@H](O)[C@@H](C(O)(CCc3ccccc3)C(F)(F)F)O[C@@H]2S1 (stereo in doubt) [Example 27, (3aR,5S,6S,7R,7aR)-2-(dimethylamino)-5-((S)-1,1,1-trifluoro-2-hydroxy-4-phenylbutan-2-yl)-5,6,7,7a-tetrahydro-3aH-pyrano[3,2-d]thiazole-6,7-diol] | 0.92
CN(C)C1=N[C@@H]2[C@@H](O)[C@H](O)[C@@H]([C@@](O)(CCc3ccccc3)C(F)(F)F)O[C@@H]2S1 (stereo in doubt) [Example 28, (3aR,5S,6S,7R,7aR)-2-(dimethylamino)-5-(1,1,1-trifluoro-2-hydroxy-4-phenylbutan-2-yl)-5,6,7,7a-tetrahydro-3aH-pyrano[3,2-d]thiazole-6,7-diol] | 316
COc1ccc(CCC(O)([C@H]2O[C@@H]3SC(N(C)C)=N[C@@H]3[C@@H](O)[C@@H]2O)C(F)(F)F)cc1 (stereo in doubt) [Example 29, (3aR,5S,6S,7R,7aR)-2-(dimethylamino)-5-((S)-1,1,1-trifluoro-2-hydroxy-4-(4-methoxyphenyl)butan-2-yl)-5,6,7,7a-tetrahydro-3aH-pyrano[3,2-d]thiazole-6,7-diol] | 1.1
COc1ccc(CC[C@H]([C@H]2O[C@@H]3SC(N(C)C)=N[C@@H]3[C@@H](O)[C@@H]2O)C(F)(F)F)cc1 [Example 1, (3aR,5R,6S,7R,7aR)-2-(dimethylamino)-5-((R)-1,1,1-trifluoro-4-(4-methoxyphenyl)butan-2-yI)-5,6,7,7a-tetrahydro-3aH-pyrano[3,2-d]thiazole-6,7-diol] | 109
CCOC(=O)/C=C/[C@H]1O[C@@H]2SC(NC)=N[C@@H]2[C@@H](O)[C@@H]1O [Example 5, (E)-ethyl 3-((3aR,5R,6S,7R,7aR)-6,7-dihydroxy-2-(methylamino)-5,6,7,7a-tetrahydro-3aH-pyrano[3,2-d]thiazol-5-yl)acrylate] | 72
CNC1=N[C@@H]2[C@@H](O)[C@H](O)[C@@H](C(F)(F)CCc3ccc(OC)cc3)O[C@@H]2S1 [Example 10, (3aR,5S,6S,7R,7aR)-5-(1,1-difluoro-3-(4-methoxyphenyl)propyl)-2-(methylamino)-5,6,7,7a-tetrahydro-3aH-pyrano[3,2-d]thiazole-6,7-diol] | 69
CN(C)C1=N[C@@H]2[C@@H](O)[C@H](O)[C@@H](CC#N)O[C@@H]2S1 [Example 11, 2-((3aR,5R,6S,7R,7aR)-2-(dimethylamino)-6,7-dihydroxy-5,6,7,7a-tetrahydro-3aH-pyrano[3,2-d]thiazol-5-yl)acetonitrile] | 5.9
CNC1=N[C@@H]2[C@@H](O)[C@H](O)[C@@H](CCC(=O)OC)O[C@@H]2S1 [Example 12, methyl 3-((3aR,5R,6S,7R,7aR)-6,7-dihydroxy-2-(methylamino)-5,6,7,7a-tetrahydro-3aH-pyrano[3,2-d]thiazol-5-yl)propanoate] | 22
CNC(=O)CC[C@H]1O[C@@H]2SC(N(C)C)=N[C@@H]2[C@@H](O)[C@@H]1O [Example 13, 3-((3aR,5R,6S,7R,7aR)-2-(dimethylamino)-6,7-dihydroxy-5,6,7,7a-tetrahydro-3aH-pyrano[3,2-d]thiazol-5-yl)-N-methylpropanamide] | 100
C=C(C)[C@H]1O[C@@H]2SC(NC)=N[C@@H]2[C@@H](O)[C@@H]1O [Example 14, (3aR,5R,6S,7R,7aR)-2-(methylamino)-5-(prop-1-en-2-yl)-5,6,7,7a-tetrahydro-3aH-pyrano[3,2-d]thiazole-6,7-diol 2,2,2-trifluoroacetate] | 10.1
C=C([C@H]1O[C@@H]2SC(NC)=N[C@@H]2[C@@H](O)[C@@H]1O)C(F)(F)F [Example 15, (3aR,5R,6S,7R,7aR)-2-(methylamino)-5-(3,3,3-trifluoroprop-1-en-2-yl)-5,6,7,7a-tetrahydro-3aH-pyrano[3,2-d]thiazole-6,7-diol] | 63
C=C(C)[C@H]1O[C@@H]2SC(N(C)C)=N[C@@H]2[C@@H](O)[C@@H]1O [Example 16, (3aR,5R,6S,7R,7aR)-2-(dimethylamino)-5-(prop-1-en-2-yl)-5,6,7,7a-tetrahydro-3aH-pyrano[3,2-d]thiazole-6,7-diol] | 21
CNC1=N[C@@H]2[C@@H](O)[C@H](O)[C@@H]([C@@H](CCc3ccc(OC)cc3)C(F)(F)F)O[C@@H]2S1 [Example 17, (3aR,5R,65,7R,7aR)-2-(methylamino)-5-((R)-1,1,1-trifluoro-4-(4-methoxyphenyl)butan-2-yl)-5,6,7,7a-tetrahydro-3aH-pyrano[3,2-d]thiazole-6,7-diol] | 139
CNC1=N[C@@H]2[C@@H](O)[C@H](O)[C@@H]([C@H](CCc3ccc(OC)cc3)C(F)(F)F)O[C@@H]2S1 [Example 18, (3aR,5R,65,7R,7aR)-2-(methylamino)-5-(1,1,1-trifluoro-4-(4-methoxyphenyl)butan-2-yl)-5,6,7,7a-tetrahydro-3aH-pyrano[3,2-d]thiazole-6,7-diol] | 1.1
CN(C)C1=N[C@@H]2[C@@H](O)[C@H](O)[C@@H](C(=CCc3ccccc3)C(F)(F)F)O[C@@H]2S1 [Example 19, (3aR,5R,6S,7R,7aR)-2-(dimethylamino)-5-(1,1,1-trifluoro-4-phenylbut-2-en-2-yl)-5,6,7,7a-tetrahydro-3aH-pyrano[3,2-d]thiazole-6,7-diol] | 20
CN(C)C1=N[C@@H]2[C@@H](O)[C@H](O)[C@@H]([C@H](O)Cc3ccccc3)O[C@@H]2S1 [Example 20, (3aR,5R,6S,7R,7aR)-2-(dimethylamino)-5-((R)-1-hydroxy-2-phenylethyl)-5,6,7,7a-tetrahydro-3aH-pyrano[3,2-d]thiazole-6,7-diol] | 736
CN(C)C1=N[C@@H]2[C@@H](O)[C@H](O)[C@@H]([C@@H](O)Cc3ccccc3)O[C@@H]2S1 [Example 21, (3aR,5R,6S,7R,7aR)-2-(dimethylamino)-5-((S)-1-hydroxy-2-phenylethyl)-5,6,7,7a-tetrahydro-3aH-pyrano[3,2-d]thiazole-6,7-diol] | 25.6

Reference: patent publication US9938299B2, “Glycosidase inhibitors and uses thereof” (MERCK SHARP & DOHME CORP., priority 2012, dated 2018)
